# Measurements published in publication PMC4604124, “In Vitro Characterization of the Pharmacological Properties of the Anti-Cancer Chelator, Bp4eT, and Its Phase I Metabolites” (PLoS ONE, 2015).
# “And” between values parts separate entries of the source, which are not always exact repeats. Equal entries are not always repeated.
# Key:
# [1] = system: labile iron pool of MCF-7 cells; assay: Calcein-AM assay, access to the labile iron pool; type: cell-based, human; design: Calcein fluorescence: unit not given here; settings: 10 μM
# Protocol: These experiments were performed according to Glickstein et al. with slight modifications. The MCF-7 cells were seeded in 96-well plates (10,000 cells/well) and allowed to adhere for 24 h/37°C. Cells were loaded with iron using the cellular iron donor, ferric ammonium citrate (530 μg/mL), 24 h prior to the experiment, and then washed. To prevent potential interference, especially with regard to various trace elements, the medium was replaced with ADS buffer (prepared using Millipore water supplemented with 116 mM NaCl, 5.3 mM KCl, 1 mM CaCl2, 1.2 mM MgSO4, 1.13 mM NaH2PO4, 5 mM D-glucose, and 20 mM HEPES, pH 7.4). Cells were then loaded with 2 μM of the cell-permeable calcein green acetoxymethyl ester (calcein-AM; Molecular Probes, Oregon, USA) for 30 min/37°C and washed. Cellular esterases cleave the acetoxymethyl groups to form the cell membrane-impermeable compound, calcein green. The fluorescence of calcein green is quenched upon binding iron. The intracellular fluorescence (λex = 488 nm; λem = 530 nm) of calcein green was then followed as a function of time (10 min after the addition of 10 μM Bp4eT or its metabolites) at 37°C using the Tecan Infinite 200M plate reader. The iron chelation efficacy of the metabolites in cells was expressed as a percentage of the efficacy of the parent chelator, Bp4eT (100%).
# [2] = system: A549 human lung adenocarcinoma cells; assay: MTT cytotoxicity assay, A549 cells; type: cell-based; settings: for IC50: MTT
# Protocol: (§1) For cytotoxicity experiments, cancer cells were seeded at a density of 5,000 (MCF-7), 10,000 (HL-60) or 2,000 cells/well (HCT116 and A549) in 96-well plates (TPP) for 24 h/37°C prior to the addition of examined agents. The non-cancerous cells, 3T3 and H9c2 cells, were cultured for 24 h/37°C in 96-well plates at a density of 10,000 cells/well, the medium was then changed to serum- and pyruvate-free DMEM (Sigma-Aldrich) and incubated with the cells for another 24 h/37°C. The cytotoxic effects of Bp4eT and its metabolites were studied at different concentrations after a 72 h/37°C incubation. In order to aid the dissolution of the lipophilic ligands, 0.1% dimethyl sulfoxide (v/v) (DMSO; Sigma-Aldrich) was present in the culture medium of all groups. At this concentration, DMSO had no effect on cellular proliferation or viability.
# (§2) The viability of cells were determined using an MTT assay (Sigma-Aldrich) according to previously established methods. The optical density of soluble MTT was measured at λ = 570 nm, subtracting the λ = 690 nm background using a Tecan Infinite 200M plate reader (Tecan Group, Männedorf, Switzerland). The viability or proliferation of experimental groups was expressed as a percentage of the untreated controls (100%).
# (§3) SigmaStat for Windows 3.5 (Systat Software, San Jose, CA, USA) statistical software package was utilized to analyze results. The data are expressed as the mean ± SD of a given number of experiments. Statistical significance was determined using a one-way ANOVA with a Bonferroni post-hoc test or Student’s t-test. The results were considered to be statistically significant when p < 0.05. The IC50 values were calculated using CalcuSyn 2.0 software (Biosoft, Cambridge, UK). Cell cycle analysis was evaluated using MultiCycle AV Software (Phoenix Flow Systems, San Diego, CA, USA).
# [3] = system: H9c2 cardiomyoblasts; assay: MTT cytotoxicity assay, H9c2 cells; type: cell-based, rat; settings: H9c2, 10 000 b/j
# Protocol: as §1, §2, §3
compound,measurement,setting,value
"CCNC(=S)NN=C(c1ccccc1)c1ccccn1 [Bp4eT, 2-benzoylpyridine 4-ethyl-3-thiosemicarbazone]",Calcein fluorescence,"[1]; 30 sec, mean (průměr)",27.822
same,Calcein fluorescence,"[1]; 60 sec, mean (průměr)",40.360
same,Calcein fluorescence,"[1]; 90 sec, mean (průměr)",65.393
same,Calcein fluorescence,"[1]; 120 sec, mean (průměr)",66.572
same,Calcein fluorescence,"[1]; 300 sec, mean (průměr)",146.135
same,Calcein fluorescence,"[1]; 300 sec, single experiments",168.950 and 158.308 and 180.958 and 116.900 and 150.183 and 101.508
same,Calcein fluorescence,"[1]; 600 sec, mean (průměr)",220.551
same,Calcein fluorescence,"[1]; 600 sec, single experiments",239.975 and 219.283 and 288.833 and 220.450 and 195.583 and 159.183
same,Chelation efficacy: fluorescence of free calcein at t = 600 s as percentage of Bp4eT,"[1]; MCF-7, mean of 6 experiments",100%
same,Fluorescence of free calcein at 600 s as percentage of Bp4eT,"[1]; MCF-7, single experiments",108.807% and 99.4251% and 130.96% and 99.954% and 88.6793% and 72.1752%
same,"Therapeutic index, IC50 non-cancerous cells / IC50 neoplastic cells",[2]; 3T3/A549,2.2
same,"MTT, relative to control (0 = 100)","[2]; A549, 2 000 b/j, 3 nM, průměr (mean)",92.19
same,"MTT, relative to control (0 = 100)","[2]; A549, 2 000 b/j, 3 nM, single experiment (date)",91.5535 and 92.8133 and 91.0654 and 88.0734 and 97.4647
same,"MTT, relative to control (0 = 100)","[2]; A549, 2 000 b/j, 10 nM, průměr (mean)",91.72
same,"MTT, relative to control (0 = 100)","[2]; A549, 2 000 b/j, 10 nM, single experiment (date)",91.5177 and 92.1605 and 92.1041 and 86.392 and 96.4421
same,"MTT, relative to control (0 = 100)","[2]; A549, 2 000 b/j, 30 nM, průměr (mean)",87.89
same,"MTT, relative to control (0 = 100)","[2]; A549, 2 000 b/j, 30 nM, single experiment (date)",87.7056 and 88.2789 and 85.7469 and 83.2321 and 94.498
same,"MTT, relative to control (0 = 100)","[2]; A549, 2 000 b/j, 100 nM, průměr (mean)",69.03
same,"MTT, relative to control (0 = 100)","[2]; A549, 2 000 b/j, 100 nM, single experiment (date)",72.0253 and 71.8755 and 68.5876 and 61.5642 and 71.0965
same,"MTT, relative to control (0 = 100)","[2]; A549, 2 000 b/j, 300 nM, průměr (mean)",52.20
same,"MTT, relative to control (0 = 100)","[2]; A549, 2 000 b/j, 300 nM, single experiment (date)",56.5532 and 52.1351 and 48.5459 and 51.5538
same,"MTT, relative to control (0 = 100)","[2]; A549, 2 000 b/j, 1000 nM, průměr (mean)",44.75
same,"MTT, relative to control (0 = 100)","[2]; A549, 2 000 b/j, 1000 nM, single experiment (date)",46.6699 and 42.1761 and 41.9617 and 48.1966
same,"MTT, relative to control (0 = 100)","[2]; A549, 2 000 b/j, 3000 nM, průměr (mean)",30.92
same,"MTT, relative to control (0 = 100)","[2]; A549, 2 000 b/j, 3000 nM, single experiment (date)",34.7604 and 31.7204 and 27.6953 and 29.4937
same,IC50,"[2]; A549, 2 000 b/j, single experiment (date)",550 nM and 407 nM and 670 nM
same,"Therapeutic index, IC50 non-cancerous cells / IC50 neoplastic cells",[2]; H9c2/A549,0.9
same,IC50,"[2]; Homo sapiens, A549, 72 h, A549, 72 h/37°C, mean ± SD, n ≥ 4",593 ± 148 nM
same,IC50,"[2]; Homo sapiens, A549, A549, 2 000 b/j, průměr (mean)",593 nM
same,IC50,"[2]; Homo sapiens, A549, A549, 2 000 b/j, single experiment (date)",744 nM
same,"Therapeutic indices, range",[2]; against A549 cells (H9c2/A549 and 3T3/A549),0.9–2.2
same,"MTT, relative to control (0 = 100)","[3]; 3 nM, průměr (mean)",99.21
same,"MTT, relative to control (0 = 100)","[3]; 3 nM, single experiment (date)",102.894 and 97.5415 and 98.1925 and 99.1728 and 98.234
same,"MTT, relative to control (0 = 100)","[3]; 10 nM, průměr (mean)",97.95
same,"MTT, relative to control (0 = 100)","[3]; 10 nM, single experiment (date)",93.4128 and 99.1411 and 98.6466 and 98.7917 and 99.7545
same,"MTT, relative to control (0 = 100)","[3]; 30 nM, průměr (mean)",93.46
same,"MTT, relative to control (0 = 100)","[3]; 30 nM, single experiment (date)",89.8997 and 94.1191 and 90.5168 and 97.6473 and 95.1275
same,"MTT, relative to control (0 = 100)","[3]; 100 nM, průměr (mean)",83.34
same,"MTT, relative to control (0 = 100)","[3]; 100 nM, single experiment (date)",88.1519 and 73.0922 and 83.4003 and 88.2 and 83.8639
same,"MTT, relative to control (0 = 100)","[3]; 300 nM, průměr (mean)",64.46
same,"MTT, relative to control (0 = 100)","[3]; 300 nM, single experiment (date)",78.5818 and 47.7898 and 54.7281 and 65.2971 and 75.8815
